{"source": "patent US12522575B2", "about": "“2-diarylmethyl-4-aminotetrahydropyran derivatives and related compounds as anticancer, antiinflammatory, antifibrotic and neuroprotective agents” (Atux Iskay LLC, priority 2021, dated 2026)", "assay_type_in_all_cases": "cell-based", "key": {"[1]": {"system": "D425 medulloblastoma cells", "assay": "D425 cell viability / proliferation (CellTiter-Glo)", "conditions": "Medulloblastoma cell; 48 hours treatment, CellTiter-Glo; read-out: IC50 for D425 cell growth", "experimental": "D425 medulloblastoma cells were purchased from SigmaAldrich. D425 meduloblastoma cells were cultured in improved Dulbecco's modified Eagle's medium (DMEM) Richter's modification supplemented with 20% fetal bovine serum and 1% Penicillin-streptomycin. Incubation was performed at 37° C. and 5% CO2.\nD425 cells were seeded at 3000-3500 cells/90 ul growth medium per well on 96-well tissue culture plates. Cells were incubated overnight to allow them to recover. Next day cells were treated with tested compounds and incubated for 48 hours.\nCell Proliferation assays in triplicate were performed at each concentration. Compounds test range was 1-30 μM (0, 5, 10, 15, 20, 25, and 30). The compounds were dissolved in DMSO. A series of dilutions were made in 1% DMSO in growth medium so that the final concentration of DMSO is 0.1% in all of treatments.\nAfter treatment, cells were allowed to equilibrate at room temperature for one hour. Cell proliferation was measured by Luminescence quantification using Promega CellTiter-Glo Luminescent Cell Viability Assay. To perform the assay, 90 ul of Celltiter-Glo substrate was added to each well, plates were shake for 2 minutes and allowed to equilibrate for 10 minutes at room temperature. Luminescence intensity was measured using the Spectramax i3x plate reader.\nThe Luminescence intensity data were analyzed using the computer software Graphpad Prism. In the absence of the compound, the luminescence intensity (Lt) in each data set was defined as 100% cell viability. The percent cell in the presence of each compound was calculated according to the following equation: % Cell=L/Lt, were L=the luminescence intensity in the presence of the compound.\nThe values of % cell versus a series of compound concentrations (0, 5, 10, 15, 20, 25, and 30 μM) were then plotted using Nonlinear regression analysis of Sigmoidal dose-response curve. IC50 value was determined by the concentration causing a half-maximal percent activity."}, "ERK and JNK": {"system": "ERK and JNK", "assay": "ERK and JNK signaling in lung fibroblasts (immunoblot, densitometry)", "conditions": "1 μM, 24 hours, lung fibroblasts (FIGS. 2 and 3)", "experimental": "Each dot represents cells from a different subject. Student t-tests or 2-way ANOVA were performed and a p-value […] was denoted as ** when comparing between phosphorylated and unphosphorylated groups.\nCompounds of the present invention reactivate PP2A responses in fibroblasts from healthy and IPF subjects."}, "PP2A": {"system": "PP2A", "assay": "PP2A responses in lung fibroblasts", "conditions": "1 μM, 24 hours", "experimental": "Each dot represents cells from a different subject. Student t-tests or 2-way ANOVA were performed and a p-value […] was denoted as * when comparing to the vehicle treated groups.\nEach dot represents cells from a different subject. Student t-tests were performed and a p-value […] was denoted as * when comparing non-smoker (NS) to IPF vehicle groups or ** when comparing vehicle IPF to compound IPF groups. Left plot: cell source-healthy non-smoker; Middle plot: cell source—IPF; Right: cell source—IPF.\nIPF fibroblasts were exposed to v or 1 micromolar of the ATUX compounds media for 24 hours and increase in PP2A activity is shown in right hand group. PP2A activity in vehicle treated fibroblasts from healthy nonsmokers is shown for comparison in the left hand group."}}}
{"smiles": "O=S(=O)(NC1CCOC(C2c3ccc(F)cc3CCc3cc(F)ccc32)C1)c1ccc(OC(F)(F)F)cc1", "note": "(stereo not shown) [Example 6, N-(2-(2,8-difluoro-10,11-dihydro-5H-dibenzo[a,d][7]annulen-5-yl)tetrahydro-2H-pyran-4-yl)-4-(trifluoromethoxy)benzenesulfonamide]", "values": [{"measurement": "IC50", "setting": "[1]", "result": 5.8, "unit": "µM"}, {"measurement": "ERK and JNK signaling", "setting": "ERK and JNK", "result": "reduced ERK and JNK signaling"}, {"measurement": "PP2A responses in lung fibroblasts from healthy subjects", "setting": "PP2A; vs vehicle (FIG. 4)", "result": "reactivation of PP2A responses"}, {"measurement": "PP2A responses in lung fibroblasts from idiopathic pulmonary fibrosis (IPF)", "setting": "PP2A; vs vehicle IPF (FIG. 5)", "result": "reactivation of PP2A responses"}]}
